Like-named read-outs stand apart in the source and are kept apart here. Marks after values point to notes of the source that are not given here.
Tests used:
[1] = molecular target: TEM-1 β-lactamase (Escherichia coli, UniProt P62593); experiment: β-lactamase inhibition, spectrophotometric, nitrocefin substrate; format: biochemical
[2] = system: E. coli (TEM-1, Class A); experiment: Microbiological assay, broth MIC in combination with piperacillin; format: cell-based; conditions: for MIC (μg/ml; 1:1) E. coli: piperacillin:inhibitor ratio 1:1, broth
Description: (§1) Representative compounds according to the present invention were tested in a microbiological assay in combination with the penicillin antibiotic piperacillin. The enhanced combined synergestic antibacterial activity is representative of the β-lactamase inhibitory properties of the compounds of the present invention. In these tests, minimum inhibitory […] (MIC's) are determined in broth using several two-fold dilutions with a 1:1 ratio of piperacillin to inhibitor (N. A. Kuck, N. V. Jacobus, P. J. Peterson, W. J. Weiss, and R. T. Testa, Antibiotic Agents and Chemotherapy, 33:1964-1969 (1989)).

[3] = system: S. marcescens (AmpC, Class C); experiment: as above; format: cell-based; conditions: for MIC (μg/ml; 1:1) S. marcescens: piperacillin:inhibitor ratio 1:1
Description: as §1

[4] = molecular target: AmpC β-lactamase (UniProt P18539); format: biochemical; conditions: read-out: IC50 (nM) AmpC
[5] = 10 minute preincubation of enzyme with inhibitor at 25° C., nitrocefin substrate, read-out: IC50 (nM) TEM-1
[6] = 10 minute preincubation of enzyme with inhibitor at 25° C., nitrocefin substrate

TEM-1 β-lactamase, sequence (P62593 24-286 limits assumed): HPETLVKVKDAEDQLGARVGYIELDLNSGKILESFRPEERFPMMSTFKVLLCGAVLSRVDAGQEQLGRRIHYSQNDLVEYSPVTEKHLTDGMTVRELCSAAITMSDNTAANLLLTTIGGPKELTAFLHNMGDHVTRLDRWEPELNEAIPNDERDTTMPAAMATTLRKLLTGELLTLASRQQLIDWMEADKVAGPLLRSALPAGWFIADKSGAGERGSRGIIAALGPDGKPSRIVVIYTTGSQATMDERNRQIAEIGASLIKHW

Structure (SMILES) | IC50 [1] | IC50 [1, 5] | IC50 [4, 6] | MIC (μg/ml; 1:1) E. coli ([2]; strain GC6265, TEM-1 (Class A)) | MIC (μg/ml; 1:1) S. marcescens ([3]; strain GC4132, AmpC (Class C)) | IC50 [4] | further results
C[C@]1(Cn2ccnn2)C(C(=O)[O-])N2C(=O)[C@@H](CO)C2S1(=O)=O.[Na+] (some centres unmarked) [Example 1] | 6 nM |  |  |  |  |  | MIC (μg/ml; 1:1) E. coli ([2]; strain GC2847, TEM-1 (Class A)): 2^c μg/ml; MIC (μg/ml; 1:1) S. marcescens ([3]; strain GC2894, AmpC (Class C)): 16^e μg/ml
C[C@]1(/C=C\C#N)[C@H](C(=O)O)N2C(=O)[C@@H](CO)[C@H]2S1(=O)=O [Example 2 (cis), (Z)-(2S,3S,5R,6R)-6-Hydroxymethyl-3-methyl-3-(3-nitrilo-propenyl)-4,4,7-trioxo-4-lambda(6)-thia-1-azabicyclo[3.2.0]heptane-2-carboxylic acid] |  | 19 nM | 270 nM | 4 µg/mL | 8 µg/mL |  | 
C[C@]1(/C=C/C#N)[C@H](C(=O)O)N2C(=O)[C@@H](CO)[C@H]2S1(=O)=O [Example 2 (trans), (E)-(2S,3S,5R,6R)-6-Hydroxymethyl-3-methyl-3-(3-nitrilo-propenyl)-4,4,7-trioxo-4-lambda(6)-thia-1-aza-bicyclo[3.2.0]heptane-2-carboxylic acid] |  | 74 nM | 280 nM | 16 µg/mL | 4 µg/mL |  | 
CON=C[C@@]1(C)[C@H](C(=O)O)N2C(=O)[C@@H](CO)[C@H]2S1(=O)=O [Example 3, (2S,3R,5R,6R)-6-Hydroxymethyl-3-(methoxyimino-methyl)-3-methyl-4,4,7-trioxo-4-lambda(6)-thia-1-aza-bicyclo[3.2.0]heptane-2-carboxylic acid] | 64 nM |  |  | 8 µg/mL | 16 µg/mL | 280 nM | 
CCN1CCN(C(=O)N[C@@H](C(=O)N[C@@H]2C(=O)N3[C@@H]2SC(C)(C)[C@@H]3C(=O)O)c2ccccc2)C(=O)C1=O [Piperacillin, reference compound] |  |  |  |  |  |  | MIC ([2]; Escherichia coli, read-out: MIC (μg/ml) E. coli): > 64 µg/mL; MIC ([3]; Serratia marcescens, strain GC4132, AmpC (Class C), piperacillin row, no inhibitor named, read-out: MIC (μg/ml) S. marcescens): 32 µg/mL
C[C@]1(Cn2ccnn2)[C@H](C(=O)O)N2C(=O)C[C@H]2S1(=O)=O [Tazobactam, reference compound] |  |  |  | 2 µg/mL | 32 µg/mL | 47700 nM | 

Reference: patent US6395726B1, “3,6-disubstituted penam sulfone derivatives” (priority 1999, dated 2002)
